Counter-ions that a name gives are not always drawn. Like-named read-outs stand apart in the source and are kept apart here.
Assays:
[1] = target: T1, hAChE (Homo sapiens, UniProt P22303); assay: Kinetic study of AChE inhibition (Lineweaver-Burk, nonlinear regression); type: biochemical
T1 construct: purchased Sigma-Aldrich (Prague, Czech Republic)

[2] = Experimentally determined physicochemical values with Sirius T3 device
[3] = test system: HepG2 cell line; assay: cells; type: cell-based, human; settings: read-out: IC50 ± SEM HepG2
[4] = test system: ACHN cell line; assay: cells; type: cell-based, human; settings: read-out: IC50 ± SEM ACHN
[5] = test system: SH-SY5Y cell line; assay: cells; type: cell-based, human; settings: read-out: IC50 ± SEM SH-SY5Y
[6] = in vitro; settings: PAMPA, pH 7.4
[7] = target: T2, human plasmatic BChE (hBChE) (Homo sapiens, UniProt P06276); assay: In vitro anti-cholinesterase assay (modified Ellman's method), hBChE; type: biochemical; settings: mean of at least three experiments; read-out: IC50 ± SEM hBChE
T2 construct: human plasmatic BChE (hBChE, E.C. 3.1.1.8, purchased from Sigma-Aldrich); purchased Sigma-Aldrich (Prague, Czech Republic); host or cells: human plasma

[8] = PAMPA; taken from ref 52, 53; cited from earlier work
[9] = test system: hBChE; settings: literature value; cited from earlier work
[10] = PAMPA, pH 7.4
[11] = test system: AChE; parameters: method as in PMID 23480140; settings: versus THA and (−)-huperzine A; cited from earlier work
[12] = test system: 3-nitropropionic acid (3-NP) intoxication; settings: 3-NP-induced assay, HupY pretreatment; cited from earlier work
[13] = test system: HepG2, ACHN and SH-SY5Y cell lines; assay: cells; settings: Homo sapiens, 24 h, read-out: IC50 values for all the tested cell lines
[14] = MTT, cytotoxic profile assessed after 24 h

T1 sequence (P22303 32-614): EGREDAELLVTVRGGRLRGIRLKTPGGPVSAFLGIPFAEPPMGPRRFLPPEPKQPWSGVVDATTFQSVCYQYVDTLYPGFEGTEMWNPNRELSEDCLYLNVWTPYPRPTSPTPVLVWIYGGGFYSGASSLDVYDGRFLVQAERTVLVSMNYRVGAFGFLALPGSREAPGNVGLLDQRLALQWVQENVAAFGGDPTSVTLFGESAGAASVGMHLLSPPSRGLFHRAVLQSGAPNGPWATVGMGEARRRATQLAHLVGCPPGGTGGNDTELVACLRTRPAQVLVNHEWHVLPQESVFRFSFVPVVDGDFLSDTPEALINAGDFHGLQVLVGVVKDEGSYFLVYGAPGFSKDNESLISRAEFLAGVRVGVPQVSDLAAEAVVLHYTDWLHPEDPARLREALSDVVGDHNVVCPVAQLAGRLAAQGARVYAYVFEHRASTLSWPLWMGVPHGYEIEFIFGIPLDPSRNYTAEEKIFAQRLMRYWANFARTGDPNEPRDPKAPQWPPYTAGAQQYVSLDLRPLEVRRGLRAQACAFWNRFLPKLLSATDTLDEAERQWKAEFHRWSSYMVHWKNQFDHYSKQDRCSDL
T2 sequence (P06276 29-602): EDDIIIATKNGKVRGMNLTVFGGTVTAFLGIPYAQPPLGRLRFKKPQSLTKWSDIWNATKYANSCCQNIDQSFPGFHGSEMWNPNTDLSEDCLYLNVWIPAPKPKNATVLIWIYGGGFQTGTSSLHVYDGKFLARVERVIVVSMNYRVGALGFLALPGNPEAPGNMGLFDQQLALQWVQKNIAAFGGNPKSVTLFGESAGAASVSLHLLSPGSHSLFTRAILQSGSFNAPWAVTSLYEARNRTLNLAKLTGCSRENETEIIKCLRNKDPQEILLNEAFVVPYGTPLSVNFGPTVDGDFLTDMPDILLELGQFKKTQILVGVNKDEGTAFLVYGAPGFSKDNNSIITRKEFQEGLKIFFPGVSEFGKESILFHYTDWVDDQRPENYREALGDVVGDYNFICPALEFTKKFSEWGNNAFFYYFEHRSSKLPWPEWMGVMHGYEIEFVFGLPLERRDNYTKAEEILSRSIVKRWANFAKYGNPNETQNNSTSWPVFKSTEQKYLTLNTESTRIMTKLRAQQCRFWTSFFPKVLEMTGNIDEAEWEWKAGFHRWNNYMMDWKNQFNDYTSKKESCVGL

COc1ccc2nc3c(c(N)c2c1)C1CC(C)=CC(C3)C1 (racemic) [(±)-1·HCl, rac-6-Methoxy-15-methyl-10-azatetracyclo[11.3.1.0^2,11.0^4,9]heptadeca-2(11),3,5,7,9,14-hexaen-3-amine hydrochloride]
Ki' ([1]; enzyme-substrate complex, inhibitor 1.00, 10.0 and 100 µM): 3.67 ± 0.42 µM | type of inhibition ([1]; nonlinear regression, sum-of-squares F-test, p < 0.05): mixed type of inhibition | logD ([2]; pH 7.4, read-out: logD7.4 (experimental)): 1.73 | logP ([2]; read-out: logP (experimental)): 3.58 | pKa ([2]; read-out: pKa (experimental)): 9.54 | IC50 ([3]; Homo sapiens, HepG2, 24 h): 14.91 ± 0.11 µM | IC50 ([4]; Homo sapiens, ACHN, 24 h): 32.2 ± 0.72 µM | IC50 ([5]; Homo sapiens, SH-SY5Y, 24 h): 17.84 ± 0.09 µM | Papp at 100 µM [6]: 7.64 ± 0.22 ×10⁻⁶ cm/s

CC1=CC2Cc3nc4cc(Cl)ccc4c(N)c3C(C1)C2 (racemic) [(±)-HupY·HCl, rac-7-Chloro-15-methyl-10-azatetracyclo[11.3.1.0^2,11.0^4,9]heptadeca-2(11),3,5,7,9,14-hexaen-3-amine hydrochloride]
IC50 [7]: 358 ± 25 nM | IC50 ([3]; Homo sapiens, HepG2, 24 h): 15.9 ± 1.17 µM | IC50 ([4]; Homo sapiens, ACHN, 24 h): 24.6 ± 0.32 µM | IC50 ([5]; Homo sapiens, SH-SY5Y, 24 h): 17.5 ± 0.44 µM | Papp [6]: 5.89 ± 0.36 ×10⁻⁶ cm/s

Nc1c2c(nc3cc(Cl)ccc13)CCCC2 [6-chlorotacrine]
IC50 [3]: 43.2 ± 1.17 µM | IC50 [4, 14]: 55.1 ± 1.76 µM | IC50 [5, 14]: 50.4 ± 1.28 µM | Pe ± SEM [8]: 5.00 ± 0.45 ^c 10^−6 cm·s^−1

CC1=C[C@H]2Cc3nc4cc(Cl)ccc4c(N)c3[C@@H](C1)C2 [(+)-HupY]
IC50 [9]: 153 nM

CC1=C[C@@H]2Cc3nc4cc(Cl)ccc4c(N)c3[C@H](C1)C2 [(−)-HupY]
IC50 [9]: 247 nM

CO/N=C(\C(=O)N[C@@H]1C(=O)N2C(C(=O)O)=C(COC(N)=O)CS[C@H]12)c1ccco1 [Cefuroxim, cefuroxime]
Pe ± SEM [10]: 2.70 ± 0.1 10^−6 cm·s^−1

COc1ccc2nc3c(c(N)c2c1)CCCC3 [Compound 7-MEOTA, 7-methoxytacrine]
IC50 ([3]; Homo sapiens, HepG2, 24 h): 44.4 ± 3.35 µM | IC50 ([4]; Homo sapiens, ACHN, 24 h): 49.3 ± 2.69 µM | IC50 ([5]; Homo sapiens, SH-SY5Y, 24 h): 26.8 ± 1.04 µM | Papp [6]: 6.5 ± 1.85 ×10⁻⁶ cm/s

CCC1=CC2Cc3nc4cc(Cl)ccc4c(N)c3[C@@H](C1)C2 [HupX]
AChE inhibition potency relative to the parent structures [11]: more than 100 times

CC1=CC2Cc3nc4cc(Cl)ccc4c(N)c3C(C1)C2 (centres unmarked) [HupY]
survival of pretreated mice [12]: increased the survival

CN1C(C(=O)Nc2ccccn2)=C(O)c2ccccc2S1(=O)=O [Piroxicam, piroxicam]
Pe ± SEM [10]: 2.20 ± 0.15 10^−6 cm·s^−1

Nc1c2c(nc3ccccc13)CCCC2 [THA, 1,2,3,4-tetrahydro-9-aminoacridine]
IC50 ([4]; Homo sapiens, ACHN, 24 h): 155.2 ± 0.67 µM | IC50 ([5]; Homo sapiens, SH-SY5Y, 24 h): 121 ± 1.97 µM | Pe ± SEM [8]: 5.30 ± 0.20 ^c 10^−6 cm·s^−1 | IC50 [13]: 120 to 168 µM

From article PMC6152224 (Molecules : A Journal of Synthetic Chemistry and Natural …, 2017)
